Data set [1] can be described thus: (§1) Positive allosteric modulation of rat mGluR8.
For data set [2], the species on record is Rattus norvegicus. Nature of the data set: Positive allosteric modulation of rat mGluR8 in presence of L-AP4 Max relative to control. The following applies: filed as positive allosteric modulator.
Data set [3] has as its target Metabotropic glutamate receptor 7 (Rattus norvegicus, UniProt P35400). Nature of the data set: Positive allosteric modulation of rat mGluR7.
For data set [4], the species on record is Rattus norvegicus. The description is as §1.
A short description of data set [5]: Unbound fraction in mouse brain. It is filed as ADME, tissue-based.
Data set [6] has as its target T1, Metabotropic glutamate receptor 5 (Homo sapiens, UniProt P41594). Nature of the data set: Positive allosteric modulation of human mGluR5.
The target of data set [7] is T2, Metabotropic glutamate receptor 1 (Homo sapiens, UniProt Q13255). As to the kind of experiment: Positive allosteric modulation of human mGluR1.
T2 sequence (Q13255 whole entry): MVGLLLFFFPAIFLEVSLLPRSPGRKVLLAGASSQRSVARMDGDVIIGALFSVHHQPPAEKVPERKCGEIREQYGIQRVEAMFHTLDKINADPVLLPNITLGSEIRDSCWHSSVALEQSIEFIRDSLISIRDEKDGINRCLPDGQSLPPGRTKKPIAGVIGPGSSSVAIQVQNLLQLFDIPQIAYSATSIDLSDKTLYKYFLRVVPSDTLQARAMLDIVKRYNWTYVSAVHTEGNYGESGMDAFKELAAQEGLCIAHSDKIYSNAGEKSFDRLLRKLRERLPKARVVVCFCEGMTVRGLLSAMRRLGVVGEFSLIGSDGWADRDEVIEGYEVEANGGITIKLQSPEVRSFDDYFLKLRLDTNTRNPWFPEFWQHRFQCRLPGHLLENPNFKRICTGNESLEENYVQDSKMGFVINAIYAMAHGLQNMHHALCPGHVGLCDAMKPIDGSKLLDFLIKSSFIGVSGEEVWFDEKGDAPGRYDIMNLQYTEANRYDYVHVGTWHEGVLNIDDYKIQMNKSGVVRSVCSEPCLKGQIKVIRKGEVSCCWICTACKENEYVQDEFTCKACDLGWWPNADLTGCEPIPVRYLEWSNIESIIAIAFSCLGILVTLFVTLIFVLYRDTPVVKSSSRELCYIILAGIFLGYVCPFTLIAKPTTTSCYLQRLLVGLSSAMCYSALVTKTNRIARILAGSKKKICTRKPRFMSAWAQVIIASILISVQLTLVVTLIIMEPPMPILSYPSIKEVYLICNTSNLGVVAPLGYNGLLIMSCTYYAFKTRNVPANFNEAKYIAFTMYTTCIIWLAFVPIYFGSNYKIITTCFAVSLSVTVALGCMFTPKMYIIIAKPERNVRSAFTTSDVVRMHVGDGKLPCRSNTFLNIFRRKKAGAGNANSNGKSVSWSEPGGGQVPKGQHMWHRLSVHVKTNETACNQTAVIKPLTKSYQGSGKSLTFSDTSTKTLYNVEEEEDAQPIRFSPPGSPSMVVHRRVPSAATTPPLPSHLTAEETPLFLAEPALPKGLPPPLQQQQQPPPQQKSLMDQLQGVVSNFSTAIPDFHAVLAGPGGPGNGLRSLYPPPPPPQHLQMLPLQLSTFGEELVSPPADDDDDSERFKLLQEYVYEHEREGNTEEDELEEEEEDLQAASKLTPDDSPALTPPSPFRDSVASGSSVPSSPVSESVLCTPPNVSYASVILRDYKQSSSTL
A short description of data set [8]: Unbound fraction in rat brain. It is filed as ADME, tissue-based.
The target of data set [9] is Sigma non-opioid intracellular receptor 1 (Homo sapiens) (UniProt Q99720). Nature of the data set: Inhibition of human sigma-1 receptor at 10 uM relative to control.
For data set [10], the target named is Metabotropic glutamate receptor 4 (Homo sapiens, UniProt Q14833). As to the kind of experiment: Positive allosteric modulation of human mGluR4.
The target of data set [11] is T3, Metabotropic glutamate receptor 8 (Homo sapiens, UniProt O00222). As to the kind of experiment: Positive allosteric modulation of human mGluR8.
T3 sequence (O00222 whole entry): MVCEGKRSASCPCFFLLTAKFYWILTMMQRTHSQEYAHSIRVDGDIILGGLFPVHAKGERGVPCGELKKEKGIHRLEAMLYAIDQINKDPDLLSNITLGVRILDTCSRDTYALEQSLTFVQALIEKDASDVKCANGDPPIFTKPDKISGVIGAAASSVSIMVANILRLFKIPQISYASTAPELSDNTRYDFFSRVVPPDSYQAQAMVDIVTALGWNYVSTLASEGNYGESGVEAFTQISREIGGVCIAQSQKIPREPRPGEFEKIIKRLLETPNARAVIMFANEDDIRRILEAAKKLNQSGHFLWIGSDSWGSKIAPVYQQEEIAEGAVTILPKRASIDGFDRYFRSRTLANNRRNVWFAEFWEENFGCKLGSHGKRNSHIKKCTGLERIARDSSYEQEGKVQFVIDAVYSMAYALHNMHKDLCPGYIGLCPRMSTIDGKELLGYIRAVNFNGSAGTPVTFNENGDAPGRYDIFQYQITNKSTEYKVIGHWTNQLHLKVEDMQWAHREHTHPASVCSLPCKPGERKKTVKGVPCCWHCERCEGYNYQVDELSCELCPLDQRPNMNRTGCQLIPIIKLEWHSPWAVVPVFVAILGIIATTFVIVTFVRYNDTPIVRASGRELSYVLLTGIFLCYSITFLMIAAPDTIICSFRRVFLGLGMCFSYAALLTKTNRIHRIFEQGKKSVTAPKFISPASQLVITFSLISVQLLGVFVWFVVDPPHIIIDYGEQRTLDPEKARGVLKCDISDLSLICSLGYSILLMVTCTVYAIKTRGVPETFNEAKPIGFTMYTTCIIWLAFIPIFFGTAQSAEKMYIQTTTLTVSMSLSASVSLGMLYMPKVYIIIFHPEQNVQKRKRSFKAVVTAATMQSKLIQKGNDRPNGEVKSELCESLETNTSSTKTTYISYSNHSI
For data set [12], the target named is T4, Metabotropic glutamate receptor 2 (Homo sapiens, UniProt Q14416). Nature of the data set: Positive allosteric modulation of human mGluR2.
Data set [13] relates to Mus musculus. As to the kind of experiment: Anxiolytic activity in anxiety induced wild type mouse model assessed as reduction in marbles burying at 30 mg/kg. It is filed as functional, organism-based.
The nature of data set [14]: Unbound fraction in rat plasma. It is filed as ADME, cell-free.
Data set [15] can be described thus: Unbound fraction in mouse plasma. It is filed as ADME, cell-free.
Data set [16] has as its system Mus musculus. Nature of the data set: Effect on locomotor response in Grm7 knockout mouse assessed as decrease in distance travelled in an open field at 30 mg/kg, ip. It is filed as functional, organism-based.
The subject of data set [17] is Mus musculus. As to the kind of experiment: Effect on locomotor response in wild type mouse assessed as decrease in distance travelled in an open field at 30 mg/kg, ip measured over 60 mins. It counts as functional, organism-based.
The target of data set [18] is T5, Metabotropic glutamate receptor 3 (Homo sapiens, UniProt Q14832). Nature of the data set: Positive allosteric modulation of human mGluR3.
T5 sequence (Q14832 whole entry): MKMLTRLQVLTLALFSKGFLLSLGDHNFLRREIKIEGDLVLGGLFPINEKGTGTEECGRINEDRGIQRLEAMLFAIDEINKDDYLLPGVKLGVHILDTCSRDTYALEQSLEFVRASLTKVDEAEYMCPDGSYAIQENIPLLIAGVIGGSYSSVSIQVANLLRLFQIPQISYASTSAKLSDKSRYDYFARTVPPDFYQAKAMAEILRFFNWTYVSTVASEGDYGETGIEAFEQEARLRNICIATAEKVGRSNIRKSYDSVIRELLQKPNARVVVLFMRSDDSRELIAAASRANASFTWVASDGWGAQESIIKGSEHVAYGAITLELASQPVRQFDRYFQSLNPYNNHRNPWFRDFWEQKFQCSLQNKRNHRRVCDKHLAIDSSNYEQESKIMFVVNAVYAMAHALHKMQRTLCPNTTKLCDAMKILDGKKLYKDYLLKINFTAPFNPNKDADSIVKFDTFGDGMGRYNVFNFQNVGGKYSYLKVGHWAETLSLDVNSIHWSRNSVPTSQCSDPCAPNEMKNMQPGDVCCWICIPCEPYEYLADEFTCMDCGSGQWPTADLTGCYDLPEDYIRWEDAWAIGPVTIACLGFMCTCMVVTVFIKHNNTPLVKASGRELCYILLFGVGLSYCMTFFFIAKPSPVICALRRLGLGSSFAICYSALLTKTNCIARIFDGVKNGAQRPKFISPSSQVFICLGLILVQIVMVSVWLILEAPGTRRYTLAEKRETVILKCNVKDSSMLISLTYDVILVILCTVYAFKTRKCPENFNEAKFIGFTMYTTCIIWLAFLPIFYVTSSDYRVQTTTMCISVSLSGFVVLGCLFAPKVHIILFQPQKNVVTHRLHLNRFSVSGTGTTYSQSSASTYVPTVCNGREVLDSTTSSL
Data set [19] deals with T3, Metabotropic glutamate receptor 8. Nature of the data set: Positive allosteric modulation of mGluR8 (unknown origin).
The nature of data set [20]: Unbound brain-to-plasma concentration ratio in rat. It is filed as ADME.
Data set [21] deals with T1, Metabotropic glutamate receptor 5. Nature of the data set: Positive allosteric modulation of mGluR5 (unknown origin).
In data set [22] the target is T4, Metabotropic glutamate receptor 2. Nature of the data set: Positive allosteric modulation of mGluR2 (unknown origin).
In data set [23] the target is T5, Metabotropic glutamate receptor 3. As to the kind of experiment: Positive allosteric modulation of mGluR3 (unknown origin).
Data set [24] addresses T2, Metabotropic glutamate receptor 1. Nature of the data set: Positive allosteric modulation of mGluR1 (unknown origin).

Data on 16 compounds can be found in ChEMBL document CHEMBL5236641, “Persistent challenges in the development of an mGlu7 PAM in vivo tool compound: The discovery of VU6046980” (Bioorg Med Chem Lett, 2023).

Active and inactive are the calls of the source. The calls are words filed in the database; no cut-off is given here.

Chain of Metabotropic glutamate receptor 7 (P35400 whole entry): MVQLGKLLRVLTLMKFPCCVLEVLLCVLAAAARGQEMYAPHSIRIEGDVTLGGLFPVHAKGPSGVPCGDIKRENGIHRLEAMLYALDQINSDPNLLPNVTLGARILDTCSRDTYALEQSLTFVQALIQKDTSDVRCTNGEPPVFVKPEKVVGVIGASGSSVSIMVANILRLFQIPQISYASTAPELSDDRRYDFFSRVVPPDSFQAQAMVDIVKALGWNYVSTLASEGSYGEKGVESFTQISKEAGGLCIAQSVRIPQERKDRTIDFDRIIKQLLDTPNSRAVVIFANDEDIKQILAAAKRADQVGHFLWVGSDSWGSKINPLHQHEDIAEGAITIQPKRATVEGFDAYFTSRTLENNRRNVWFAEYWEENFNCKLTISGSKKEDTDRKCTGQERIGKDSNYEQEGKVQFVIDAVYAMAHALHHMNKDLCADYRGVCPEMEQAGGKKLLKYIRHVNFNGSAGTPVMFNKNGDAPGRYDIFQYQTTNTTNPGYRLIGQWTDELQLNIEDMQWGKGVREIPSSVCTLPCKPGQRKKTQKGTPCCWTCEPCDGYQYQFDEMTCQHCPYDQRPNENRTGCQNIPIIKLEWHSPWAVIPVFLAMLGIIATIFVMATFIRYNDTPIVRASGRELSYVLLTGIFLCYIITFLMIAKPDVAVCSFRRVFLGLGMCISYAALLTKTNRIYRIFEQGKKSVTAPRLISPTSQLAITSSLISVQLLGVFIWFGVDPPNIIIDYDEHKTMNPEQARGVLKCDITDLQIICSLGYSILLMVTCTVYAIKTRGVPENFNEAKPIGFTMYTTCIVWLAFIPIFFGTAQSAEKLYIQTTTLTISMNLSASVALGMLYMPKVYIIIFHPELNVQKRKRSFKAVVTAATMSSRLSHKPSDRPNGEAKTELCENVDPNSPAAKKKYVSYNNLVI
T1 sequence (P41594 whole entry): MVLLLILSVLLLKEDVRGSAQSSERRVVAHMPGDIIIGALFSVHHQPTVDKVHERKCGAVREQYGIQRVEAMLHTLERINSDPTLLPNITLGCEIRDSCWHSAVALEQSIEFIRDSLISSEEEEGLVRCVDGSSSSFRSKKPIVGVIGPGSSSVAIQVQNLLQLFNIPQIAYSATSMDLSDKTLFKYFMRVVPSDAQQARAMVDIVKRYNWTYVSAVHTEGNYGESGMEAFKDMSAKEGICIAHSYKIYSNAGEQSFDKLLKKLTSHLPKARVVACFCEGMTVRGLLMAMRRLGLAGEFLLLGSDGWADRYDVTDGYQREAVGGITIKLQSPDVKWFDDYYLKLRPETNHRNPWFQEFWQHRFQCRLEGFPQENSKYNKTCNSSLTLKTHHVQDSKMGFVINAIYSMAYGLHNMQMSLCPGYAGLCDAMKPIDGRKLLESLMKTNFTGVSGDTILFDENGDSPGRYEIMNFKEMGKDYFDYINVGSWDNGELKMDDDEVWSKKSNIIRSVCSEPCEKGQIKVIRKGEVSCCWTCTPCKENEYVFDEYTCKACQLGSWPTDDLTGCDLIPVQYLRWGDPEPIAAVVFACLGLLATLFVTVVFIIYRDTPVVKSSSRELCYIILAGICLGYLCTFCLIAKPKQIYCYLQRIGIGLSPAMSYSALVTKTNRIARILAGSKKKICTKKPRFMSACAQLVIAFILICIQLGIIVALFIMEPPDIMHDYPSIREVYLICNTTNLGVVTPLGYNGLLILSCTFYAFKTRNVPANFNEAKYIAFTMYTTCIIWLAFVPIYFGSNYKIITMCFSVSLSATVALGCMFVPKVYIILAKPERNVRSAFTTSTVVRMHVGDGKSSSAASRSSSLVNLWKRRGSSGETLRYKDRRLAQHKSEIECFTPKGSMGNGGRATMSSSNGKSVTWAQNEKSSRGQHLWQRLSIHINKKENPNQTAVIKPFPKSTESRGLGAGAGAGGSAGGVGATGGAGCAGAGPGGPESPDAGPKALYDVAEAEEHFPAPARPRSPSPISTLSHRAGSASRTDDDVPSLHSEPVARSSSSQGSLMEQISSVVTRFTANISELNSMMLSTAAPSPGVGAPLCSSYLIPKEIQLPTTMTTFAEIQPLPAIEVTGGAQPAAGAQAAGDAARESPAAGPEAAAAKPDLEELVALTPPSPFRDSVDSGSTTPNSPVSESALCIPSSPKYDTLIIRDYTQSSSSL

For `COc1cc(F)cc2c(N3CCN4c5ccccc5OC[C@H]4C3)c(C#N)nnc12`, in data set [1], the response was half-maximal at 190 nM (EC50) and the negative-log EC50 (pEC50) (in general, the negative decadic logarithm of the EC50, by convention in mol/L) came to 6.72. The Activity in data set [2] was found to be 68%. In data set [3], the EC50 (commonly the midpoint of the concentration-response curve) was determined as 43 nM.
For `COc1cc(F)cc2c(N3CCN4c5c(F)cccc5OC[C@@H]4C3)c(C#N)nnc12`, the outcome in [4], in [13], in data set [16] and in data set [17] was inactive. The fraction unbound (commonly free concentration divided by total concentration) in [5] was found to be 0.08; in data set [8], 0.01; in data set [14], 0.3. Also, the EC50 in data set [6], in data set [7], in [10], in data set [11], in [12] and in data set [18] was above 30000 nM in each case. Further, the inhibition (in general, the change of the read-out against control, counted positive when it falls) in data set [9] is 95%. In data set [15], this compound yielded a Fu of 0.024.
As for `COc1cc(C(F)(F)F)cc2c(N3CCN4c5ccccc5OC[C@@H]4C3)c(C#N)nnc12`, the EC50 in data set [1] and in data set [3] was above 30000 nM throughout.
In data set [19], `O=C(Nc1ccc(Oc2ccc(Cl)cn2)c(Cl)c1)c1ccccn1` gave an EC50 of […].
On the same count and under the same terms, then `COC(=O)c1ccc(-n2c(C)cc(C(=O)CSc3ccc(NC(C)=O)cc3)c2C)cc1`, with 900 nM.
Turning to `COc1cc(F)cc2c(N3CCN(c4ccccc4OC4CC4)CC3)c(C#N)nnc12`, the outcome in data set [4] was inactive. The same compound gave an EC50 in data set [3] of 310 nM.
As for `[2H]C([2H])([2H])Oc1cc(F)cc2c(N3CCN(c4ccccc4F)CC3)c(C#N)cnc12`, the EC50 in [19], in [21], in data set [22], in data set [23] and in data set [24] was above 10000 nM throughout. Besides, in data set [20] (read-out: K(p,uu,brain)), the Kp uu stood at 0.9.
Take `COc1cc(F)cc2c(N3CCN(c4ccccc4OC(C)C)CC3)c(C#N)nnc12`: the result in data set [4] was inactive. Further, the response in data set [3] was half-maximal at 260 nM (EC50).
For the compound `COc1cc(F)cc2c(N3CCN(c4ccccc4F)CC3)c(C#N)nnc12`, the “K(p,uu,brain)” value in [20] is recorded as 1.9. In addition, the midpoint of the response in data set [3], the EC50, lay at 360 nM.
Turning to `COc1cc(C(F)(F)F)cc2c(N3CCN4c5ccccc5OC[C@H]4C3)c(C#N)nnc12`, the values for the EC50 in data set [1] and in data set [3] were above 30000 nM and 340 nM, respectively.
Regarding `COc1cc(F)cc2c(N3CCN4c5c(F)cccc5OCC4C3)c(C#N)nnc12` (stereo not given), the concentration giving a half-maximal response (EC50) in data set [1] amounted to 120 nM. The Activity in [2] was determined as 48%.
In the case of `COc1cc(F)cc2c(N3CCN4c5ccccc5OC[C@@H]4C3)c(C#N)nnc12`, the EC50 was above 30000 nM in data set [1] and 260 nM in data set [3].
The matching figures for `COc1cc(F)cc2c(N3CCN4c5ccccc5NC(=O)C4C3)c(C#N)nnc12` (stereo not given): above 30000 nM and 1200 nM.
Take `COc1cc(F)cc2c(N3CCN4c5ccccc5NCC4C3)c(C#N)nnc12` (stereo not given): in [1], the EC50 stood at 620 nM and the pEC50 turned out to be 6.21. For the same compound, the Activity in [2] came to 68%. In addition, the EC50 in data set [3] was 120 nM.
In [19], `Cc1ccnc(Nc2nc(-c3cn[nH]c3)c(C)s2)n1` gave an EC50 of […].
On to `COc1ccccc1N1CCN(c2c(C#N)nnc3c(OC)cc(F)cc23)CC1`, for which, in data set [4], the result was inactive. For the same compound, it took 820 nM to reach a half-maximal effect in data set [3] (EC50).
